According to ChEMBL document CHEMBL3885861, “Open TG-GATES”:

Species on record: Rattus norvegicus
Test: Open TG-GATES - Regimen: Single
Format: toxicity, organism-based, Sprague-Dawley
Design: regimen Single, gender Male, age 6 weeks
Conditions: in vivo, po, 100 mg/kg, route gavage, dose level Middle; for APTT / Bas / Eos / Fbg / Hb / Ht / Lym / MCH / MCHC / MCV / Mono / Neu / PT / Plat / RBC / Ret / WBC: tissue Blood; for KIDNEY_L / KIDNEY_R / KIDNEY_TOTAL: tissue Kidney; for LIVER: tissue Liver; for A/G / ALP / ALT / AST / BUN / CRE / Ca / Cl / DBIL / GLC / IP / K / LDH / Na / PL / RALB / TBIL / TC / TG / TP / gamma-GTP: tissue Plasma

## CCCNC(=O)NS(=O)(=O)c1ccc(Cl)cc1 [CHLORPROPAMIDE]
3 h
  TERMINAL_BW: 198.7 g
  APTT: 19.6 s
  Bas: 0%
  Eos: 1%
  Fbg: 311.8 mg/dL
  Hb: 13.9 g/dL
  Ht: 42.7%
  Lym: 73.2%
  MCH: 21.4 pg
  MCHC: 32.5%
  MCV: 66 fL
  Mono: 3.8%
  Neu: 20.8%
  PT: 15.6 s
  Plat: 113.1 x10_4/uL
  RBC: 648.4 x10_4/ul
  Ret: 9.2%
  WBC: 72.2 x10_2/uL
  KIDNEY_L: 0.9 g
  KIDNEY_R: 0.9 g
  KIDNEY_TOTAL: 1.8 g
  LIVER: 8.8 g
  A/G: 0.9
  ALP: 1315.6 IU/L
  ALT: 48.8 IU/L
  AST: 80 IU/L
  BUN: 11.2 mg/dL
  CRE: 0.2 mg/dL
  Ca: 10.8 mg/dL
  Cl: 107.8 meq/L
  DBIL: 0.01 mg/dL
  GLC: 126.4 mg/dL
  IP: 9.2 mg/dL
  K: 3.8 meq/L
  LDH: 71.6 IU/L
  Na: 144.6 meq/L
  PL: 129 mg/dL
  RALB: 2.6 g/dL
  TBIL: 0.02 mg/dL
  TC: 74.6 mg/dL
  TG: 71 mg/dL
  TP: 5.7 g/dL
  gamma-GTP: 1.4 IU/L
6 h
  TERMINAL_BW: 194.9 g
  APTT: 23.7 s
  Bas: 0.2%
  Eos: 1%
  Fbg: 317 mg/dL
  Hb: 13.6 g/dL
  Ht: 41.9%
  Lym: 71.6%
  MCH: 21.7 pg
  MCHC: 32.4%
  MCV: 66.9 fL
  Mono: 3.6%
  Neu: 22.4%
  PT: 15.1 s
  Plat: 122.2 x10_4/uL
  RBC: 627 x10_4/ul
  Ret: 9.8%
  WBC: 96.8 x10_2/uL
  KIDNEY_L: 0.9 g
  KIDNEY_R: 0.8 g
  KIDNEY_TOTAL: 1.7 g
  LIVER: 8 g
  A/G: 0.9
  ALP: 1525.8 IU/L
  ALT: 44.2 IU/L
  AST: 80.8 IU/L
  BUN: 12.6 mg/dL
  CRE: 0.2 mg/dL
  Ca: 11 mg/dL
  Cl: 109 meq/L
  DBIL: 0.002 mg/dL
  GLC: 123.8 mg/dL
  IP: 9.9 mg/dL
  K: 4 meq/L
  LDH: 81 IU/L
  Na: 143.8 meq/L
  PL: 139.6 mg/dL
  RALB: 2.6 g/dL
  TBIL: 0.02 mg/dL
  TC: 85.4 mg/dL
  TG: 49.8 mg/dL
  TP: 5.7 g/dL
  gamma-GTP: 1.2 IU/L
9 h
  TERMINAL_BW: 194.2 g
  APTT: 17.1 s
  Bas: 0%
  Eos: 1%
  Fbg: 307.8 mg/dL
  Hb: 13.1 g/dL
  Ht: 40.7%
  Lym: 71.4%
  MCH: 20.9 pg
  MCHC: 32.3%
  MCV: 64.8 fL
  Mono: 3%
  Neu: 24%
  PT: 15.1 s
  Plat: 119.5 x10_4/uL
  RBC: 627.4 x10_4/ul
  Ret: 10%
  WBC: 82.5 x10_2/uL
  KIDNEY_L: 0.9 g
  KIDNEY_R: 0.9 g
  KIDNEY_TOTAL: 1.8 g
  LIVER: 7.8 g
  A/G: 0.9
  ALP: 1124.6 IU/L
  ALT: 35.6 IU/L
  AST: 77 IU/L
  BUN: 9.8 mg/dL
  CRE: 0.2 mg/dL
  Ca: 10.7 mg/dL
  Cl: 107.6 meq/L
  DBIL: 0 mg/dL
  GLC: 119.4 mg/dL
  IP: 10.1 mg/dL
  K: 3.9 meq/L
  LDH: 68.6 IU/L
  Na: 143.2 meq/L
  PL: 120.4 mg/dL
  RALB: 2.5 g/dL
  TBIL: 0.026 mg/dL
  TC: 70.8 mg/dL
  TG: 37 mg/dL
  TP: 5.4 g/dL
  gamma-GTP: 1.2 IU/L
24 h
  TERMINAL_BW: 210.9 g
  APTT: 20 s
  Bas: 0%
  Eos: 1%
  Fbg: 318.2 mg/dL
  Hb: 12.6 g/dL
  Ht: 39.1%
  Lym: 73%
  MCH: 21 pg
  MCHC: 32.2%
  MCV: 65.2 fL
  Mono: 3.6%
  Neu: 21%
  PT: 15.8 s
  Plat: 111.8 x10_4/uL
  RBC: 599.4 x10_4/ul
  Ret: 9.2%
  WBC: 97.9 x10_2/uL
  KIDNEY_L: 0.9 g
  KIDNEY_R: 1 g
  KIDNEY_TOTAL: 1.9 g
  LIVER: 9.6 g
  A/G: 0.9
  ALP: 1496.2 IU/L
  ALT: 45.4 IU/L
  AST: 70.2 IU/L
  BUN: 15.6 mg/dL
  CRE: 0.2 mg/dL
  Ca: 10.9 mg/dL
  Cl: 105.8 meq/L
  DBIL: 0.004 mg/dL
  GLC: 177.4 mg/dL
  IP: 8.4 mg/dL
  K: 3.7 meq/L
  LDH: 87.2 IU/L
  Na: 143 meq/L
  PL: 145 mg/dL
  RALB: 2.6 g/dL
  TBIL: 0.032 mg/dL
  TC: 81.4 mg/dL
  TG: 63.6 mg/dL
  TP: 5.5 g/dL
  gamma-GTP: 1 IU/L
